Structures can show the parent of a compound that is named as a salt.
test system: MV4-11 cells; experiment: MV4-11 Cytotoxicity Assay; format: cell-based, human; conditions: 72 hr, CCK-8; read-out: MV4-11 cytotoxicity

Molecule `CCc1cc(-c2nnc(C(N)=O)n2-c2ccc(CN3CCN(CC4CCN(C(=O)C[C@@H]5N=C(c6ccc(Cl)cc6)c6c(sc(C)c6C)-n6c(C)nnc65)CC4)CC3)cc2)c(O)cc1O` [Compound 120, (S)-4-(4-((4-((1-(2-(4-(4-chlorophenyl)-2,3,9-trimethyl-6H-thieno[3,2-f][1,2,4]triazolo[4,3-a][1,4]diazepin-6-yl)acetyl)piperidin-4-yl)methyl)piperazin-1-yl)methyl)phenyl)-5-(5-ethyl-2,4-dihydroxyphenyl)-4H-1,2,4-triazole-3-carboxamide hydrochloride] has an IC50 of under 100 nM.
With `CCc1cc(-c2nnc(C(N)=O)n2-c2ccc(CN3CCN(CC4CCN(C(=O)C[C@@H]5N=C(c6ccc(Cl)cc6)c6c(sc(C)c6C)-n6c(C)nnc65)CC4)CC3)cc2)c(O)cc1O` [Compound 121, (S)-4-(4-((4-((1-(2-(4-(4-chlorophenyl)-2,3,9-trimethyl-6H-thieno[3,2-f][1,2,4]triazolo[4,3-a][1,4]diazepin-6-yl)acetyl)piperidin-4-yl)methyl)piperazin-1-yl)methyl)phenyl)-5-(5-ethyl-2,4-dihydroxyphenyl)-4H-1,2,4-triazole-3-carboxamide hydrochloride] the IC50 was under 100 nM.

same assay, conditions: Homo sapiens, MV4-11; 72 hr, CCK-8; read-out: MV4-11 cytotoxicity

`Cc1sc2c(c1C)C(c1ccc(Cl)cc1)=N[C@@H](CC(=O)N(C)CCOc1ccc(CN(C)Cc3ccc(-n4c(C(=O)NCC(F)(F)F)nnc4-c4cc(C(C)C)c(O)cc4O)cc3)cc1)c1nnc(C)n1-2` [Compound 101, (S)-4-(4-(((4-(2-(2-(4-(4-chlorophenyl)-2,3,9-trimethyl-6H-thieno[3,2-f][1,2,4]triazolo[4,3-a][1,4]diazepin-6-yl)-N-methylacetamido)ethoxy)benzyl)(methyl)amino)methyl)phenyl)-5-(2,4-dihydroxy-5-isopropylphenyl)-N-(2,2,2-trifluoroethyl)-4H-1,2,4-triazole-3-carboxamide, formic acid] and `CCN(Cc1ccc(OCCCNC(=O)C[C@@H]2N=C(c3ccc(Cl)cc3)c3c(sc(C)c3C)-n3c(C)nnc32)cc1)Cc1ccc(-n2c(C(=O)NCC(F)(F)F)nnc2-c2cc(C(C)C)c(O)cc2O)cc1` [Compound 102, (S)-4-(4-(((4-(3-(2-(4-(4-chlorophenyl)-2,3,9-trimethyl-6H-thieno[3,2-f][1,2,4]triazolo[4,3-a][1,4]diazepin-6-yl)acetamido)propoxy)benzyl)(ethyl)amino)methyl)phenyl)-5-(2,4-dihydroxy-5-isopropylphenyl)-N-(2,2,2-trifluoroethyl)-4H-1,2,4-triazole-3-carboxamide, trifluoroacetic acid] cannot be ordered by IC50: under 100 nM for the first, under 100 nM for the second.

First: Cc1sc2c(c1C)C(c1ccc(Cl)cc1)=N[C@@H](CC(=O)N1CCC(CN3CCN(Cc4ccc(-n5c(O)nnc5-c5ccc(O)cc5O)cc4)CC3)CC1)c1nnc(C)n1-2 [Compound 4, 2-((6S)-4-(4-chlorophenyl)-2,3,9-trimethyl-6H-thieno[3,2-f][1,2,4]triazolo[4,3-a][1,4]diazepin-6-yl)-1-(4-((4-(4-(3-(2,4-dihydroxyphenyl)-5-hydroxy-4H-1,2,4-triazol-4-yl)benzyl)piperazin-1-yl)methyl)piperidin-1-yl)ethanone, trifluoroacetic acid]
Second: Cc1sc2c(c1C)C(c1ccc(Cl)cc1)=N[C@@H](CC(=O)N1CCC(CN3CCN(Cc4ccc(-n5c(O)nnc5-c5cc(C(C)C)c(O)cc5O)cc4)CC3)CC1)c1nnc(C)n1-2 [Compound 103, (S)-2-(4-(4-chlorophenyl)-2,3,9-trimethyl-6H-thieno[3,2-f][1,2,4]triazolo[4,3-a][1,4]diazepin-6-yl)-1-(4-((4-(4-(3-(2,4-dihydroxy-5-isopropylphenyl)-5-hydroxy-4H-1,2,4-triazol-4-yl)benzyl)piperazin-1-yl)methyl)piperidin-1-yl)ethan-1-one acetate]
The IC50 of the first is higher: 100 to 1000 nM for the first, under 100 nM for the second.

`Cc1cc(-c2nnc(C(=O)NCC(F)(F)F)n2-c2ccc(CN3CCN(CC4CCN(C(=O)C[C@@H]5N=C(c6ccc(Cl)cc6)c6c(sc(C)c6C)-n6c(C)nnc65)CC4)CC3)cc2)c(O)cc1O` [Compound 15, 4-(4-((4-((1-(2-((6S)-4-(4-chlorophenyl)-2,3,9-trimethyl-6H-thieno[3,2-f][1,2,4]triazolo[4,3-a][1,4]diazepin-6-yl)acetyl)piperidin-4-yl)methyl)piperazin-1-yl)methyl)phenyl)-5-(2,4-dihydroxy-5-methylphenyl)-N-(2,2,2-trifluoroethyl)-4H-1,2,4-triazole-3-carboxamide, trifluoroacetic acid] and `CCCc1cc(-c2nnc(C(=O)NCCN3CCCCC3)n2-c2ccc(CN3CCN(CC4CCN(C(=O)C[C@@H]5N=C(c6ccc(Cl)cc6)c6c(sc(C)c6C)-n6c(C)nnc65)CC4)CC3)cc2)c(O)cc1O` [Compound 123, (S)-4-(4-((4-((1-(2-(4-(4-chlorophenyl)-2,3,9-trimethyl-6H-thieno[3,2-f][1,2,4]triazolo[4,3-a][1,4]diazepin-6-yl)acetyl)piperidin-4-yl)methyl)piperazin-1-yl)methyl)phenyl)-5-(2,4-dihydroxy-5-propylphenyl)-N-(2-(piperidin-1-yl)ethyl)-4H-1,2,4-triazole-3-carboxamide, trifluoroacetic acid] cannot be ordered by IC50: under 100 nM for the first, under 100 nM for the second.

`Cc1sc2c(c1C)C(c1ccc(Cl)cc1)=N[C@@H](CC(=O)N1CCC(CCN3CCC(Cc4ccc(-n5c(O)nnc5-c5cc(C(C)C)c(O)cc5O)cc4)CC3)CC1)c1nnc(C)n1-2` [Compound 80, (S)-2-(4-(4-chlorophenyl)-2,3,9-trimethyl-6H-thieno[3,2-f][1,2,4]triazolo[4,3-a][1,4]diazepin-6-yl)-1-(4-(2-(4-(4-(3-(2,4-dihydroxy-5-isopropylphenyl)-5-hydroxy-4H-1,2,4-triazol-4-yl)benzyl)piperidin-1-yl)ethyl)piperidin-1-yl)ethan-1-one, trifluoroacetic acid] and `Cc1sc2c(c1C)C(c1ccc(Cl)cc1)=N[C@@H](CC(=O)NCC1CCN(C(=O)C3CCN(Cc4ccc(-n5c(O)nnc5-c5cc(C(C)C)c(O)cc5O)cc4)CC3)CC1)c1nnc(C)n1-2` [Compound 53, (S)-2-(4-(4-chlorophenyl)-2,3,9-trimethyl-6H-thieno[3,2-f][1,2,4]triazolo[4,3-a][1,4]diazepin-6-yl)-N-((1-(1-(4-(3-(2,4-dihydroxy-5-isopropylphenyl)-5-hydroxy-4H-1,2,4-triazol-4-yl)benzyl)piperidine-4-carbonyl)piperidin-4-yl)methyl)acetamide, trifluoroacetic acid] cannot be ordered by IC50: under 100 nM for the first, under 100 nM for the second.

`Cc1sc2c(c1C)C(c1ccc(Cl)cc1)=NC(CC(=O)N1CCC(Cc3ccc(CN(C)Cc4ccc(-n5c(C(=O)NCC(F)(F)F)nnc5-c5cc(C(C)C)c(O)cc5O)cc4)cc3)CC1)c1nnc(C)n1-2` (stereo in doubt) [Compound 84, (S)-4-(4-(((4-((1-(2-(4-(4-chlorophenyl)-2,3,9-trimethyl-6H-thieno[3,2-f][1,2,4]triazolo[4,3-a][1,4]diazepin-6-yl)acetyl)piperidin-4-yl)methyl)benzyl)(methyl)amino)methyl)phenyl)-5-(2,4-dihydroxy-5-isopropylphenyl)-N-(2,2,2-trifluoroethyl)-4H-1,2,4-triazole-3-carboxamide, trifluoroacetic acid] and `Cc1sc2c(c1C)C(c1ccc(Cl)cc1)=N[C@@H](CC(=O)NCCOc1cccc(CN(C)Cc3ccc(-n4c(O)nnc4-c4cc(C(C)C)c(O)cc4O)cc3)c1)c1nnc(C)n1-2` [Compound 50, 2-((6S)-4-(4-chlorophenyl)-2,3,9-trimethyl-6H-thieno[3,2-f][1,2,4]triazolo[4,3-a][1,4]diazepin-6-yl)-N-(2-(3-(((4-(3-(2,4-dihydroxy-5-isopropylphenyl)-5-hydroxy-4H-1,2,4-triazol-4-yl)benzyl)(methyl)amino)methyl)phenoxy)ethyl)acetamide, trifluoroacetic acid, trifluoroacetic acid, trifluoroacetic acid, trifluoroacetic …] cannot be ordered by IC50: under 100 nM for the first, under 100 nM for the second.

First: Cc1sc2c(c1C)C(c1ccc(Cl)cc1)=N[C@@H](CC(=O)NCC1CCN(C(=O)C3CCN(Cc4ccc(-n5c(O)nnc5-c5cc(C(C)C)c(O)cc5O)cc4)CC3)C1)c1nnc(C)n1-2 (stereo partly drawn) [Compound 45, 2-((S)-4-(4-chlorophenyl)-2,3,9-trimethyl-6H-thieno[3,2-f][1,2,4]triazolo[4,3-a][1,4]diazepin-6-yl)-N-((1-(1-(4-(3-(2,4-dihydroxy-5-isopropylphenyl)-5-hydroxy-4H-1,2,4-triazol-4-yl)benzyl)piperidine-4-carbonyl)pyrrolidin-3-yl)methyl)acetamide, trifluoroacetic acid]
Second: Cc1sc2c(c1C)C(c1ccc(Cl)cc1)=N[C@@H](CC(=O)NCCOCc1ccc(-n3c(O)nnc3-c3cc(C(C)C)c(O)cc3O)cc1)c1nnc(C)n1-2 [Compound 52, 2-((6S)-4-(4-chlorophenyl)-2,3,9-trimethyl-6H-thieno[3,2-f][1,2,4]triazolo[4,3-a][1,4]diazepin-6-yl)-N-(2-((4-(3-(2,4-dihydroxy-5-isopropylphenyl)-5-hydroxy-4H-1,2,4-triazol-4-yl)benzyl)oxy)ethyl)acetamide]
The IC50 of the first is lower: under 100 nM for the first, 100 to 1000 nM for the second.

First: CCN(Cc1ccc(OCCCNC(=O)C[C@@H]2N=C(c3ccc(Cl)cc3)c3c(sc(C)c3C)-n3c(C)nnc32)cc1)Cc1ccc(-n2c(O)nnc2-c2cc(C(C)C)c(O)cc2O)cc1 [Compound 100, (S)-2-(4-(4-chlorophenyl)-2,3,9-trimethyl-6H-thieno[3,2-f][1,2,4]triazolo[4,3-a][1,4]diazepin-6-yl)-N-(3-(4-(((4-(3-(2,4-dihydroxy-5-isopropylphenyl)-5-hydroxy-4H-1,2,4-triazol-4-yl)benzyl)(ethyl)amino)methyl)phenoxy)propyl)acetamide, formic acid]
Second: Cc1sc2c(c1C)C(c1ccc(Cl)cc1)=N[C@@H](CCNCCOCCOc1ccc(-n3c(O)nnc3-c3cc(C(C)C)c(O)cc3O)cc1)c1nnc(C)n1-2 [Compound 63, (S)-4-(4-(4-(2-(2-((2-(4-(4-chlorophenyl)-2,3,9-trimethyl-6H-thieno[3,2-f][1,2,4]triazolo[4,3-a][1,4]diazepin-6-yl)ethyl)amino)ethoxy)ethoxy)phenyl)-5-hydroxy-4H-1,2,4-triazol-3-yl)-6-isopropylbenzene-1,3-diol, trifluoroacetic acid]
The IC50 of the first is lower: under 100 nM for the first, 100 to 1000 nM for the second. The first is the more potent here.

Source: patent publication US12540143B2, “Methods and compositions for targeted protein degradation” (Ranok Therapeutics (Hangzhou) Co. Ltd., priority 2019, dated 2026)
